Test results published in patent publication US6428804B1, “Intra-articular preparation for the treatment of arthropathy” (SSP Co., Ltd., priority 1997, dated 2002).

Experiments:
[1] = Pharmacokinetic test of MTX-containing microcapsules (Test 8); assay type: in vivo; conditions: rabbit knee joint, 1 mg in terms of MTX (FIG. 11)
Method: The MTX-containing microcapsules obtained in Example 26 were suspended in the same injection-grade dispersion medium as that employed in Test 1. The resulting suspension was injected in a dose of 1 mg in terms of MTX into a knee joint of a rabbit, and the amount of MTX in the synovium and its peripheral tissue was measured periodically. As a control, MTX was dissolved in a phosphate buffer of pH 7.5 and the resulting solution was injected in a dose of 1 mg in terms of MTX.

[2] = Pharmacokinetic test of DFNa-containing microcapsules (Test 6); assay type: in vivo; conditions: rabbit knee joint, 1 mg in terms of DFNa, solution in physiological saline (FIG. 9)
Method: The DFNa-containing microcapsules (average particle size: 67.9 μm) obtained in Example 25 were suspended in the same injection-grade dispersion medium as that employed in Test 1. The resulting suspension was injected in a dose of 10 mg in terms of DFNa into a knee joint of a rabbit, and the amount of DF in the synovium and its peripheral tissue was measured periodically. As a control, a solution of DFNa in a physiological saline was injected in a dose of 1 mg in terms of DFNa, and measurements were conducted.

Row | SMILES | amount of MTX in the synovium and its peripheral tissue [1] | amount of DF in the synovium and its peripheral tissue [2]
1 | CN(Cc1cnc2nc(N)nc(N)c2n1)c1ccc(C(=O)N[C@@H](CCC(=O)O)C(=O)O)cc1 [solution of MTX in the phosphate buffer, Methotrexate] | no existence of MTX was observed | –
2 | O=C(O)Cc1ccccc1Nc1c(Cl)cccc1Cl [diclofenac sodium] | – | no existence of DF was observed
